Experimental data from patent publication US4666897A, “Inhibition of mammalian collagenolytic enzymes by tetracyclines” (Research Foundation of State University, priority 1983, dated 1987).

What was measured:
germfree diabetic rats = test: Gingival collagenolytic activity, bone loss and skin collagen in germ-free streptozotocin-diabetic rats; assay type: in vivo, rat
Procedure: At this time (6 weeks after purchase), diabetes was induced in some of the animals, as described above in a), and the control and diabetic animals maintained under germfree conditions for an additional 6 weeks prior to sacrifice. […] Blood and tissues were then obtained to assess gingival collagenolytic enzyme activity and the loss of skin collagen and bone. The results are set forth below and illustrated in FIG. II. Alveolar bone loss was assessed in the right and left mandibles of both the conventional and germfree rats (control and diabetic) using a modification of a previously described technique (Stralfors, et.al, Archs. Oral. Biol., 12, 1213-1216 (1967); Heijl, et. al., J. […] Periodontal Res., 13, 316-325 (1978)) using an eye-piece micrometer in a dissecting microscope (20× magnification). Because uncontrolled diabetes in the rat results in the massive resorption of skin collagen associated with increased collagenase activity in this tissue, the collagen content of entire skins from the germfree and from the conventional control and diabetic rats, including those treated with minocycline was measured. The techniques used were those described by […] and Golub, (Streptozotocin: Fundamentals and Therapy (Ed. M. K. Agarwal, Elsevier/North-Holland Biomed Press, Chapter 12, pp 161-182, (1981)). The techniques used to measure the collagenolytic enzyme activity of gingival tissue in culture, and in polymorphonuclear leucocytes (PMNLs), are those described by Golub, et. al., (J. Dent. Res., 57, 520-525 (197)8) and Nicoll, et. al., (Experimentia, 37, 315-317, (1981)) with minor modifications.

[1] = system: GCF collagenase and gingival disease in non-diabetic male; test: Human GCF study, non-diabetic; assay type: in vivo
Procedure: In a separate study involving humans, gingival crevicular fluid (GCF) samples were collected on filter paper strips inserted into 8 interproximal pockets of selected teeth in the maxillary arch of two twin brothers with juvenile-onset (insulin-dependent) diabetes mellitus. Fluid volume was immediately determined on a modified Periotron (Model 6000, Harco Electronics Ltd., Winnipeg, Canada); then incubated with 10 μl (^3 H-methyl) collagen (20,675 DPM) and 70 μl buffer (50 mM Tris-HCl, pH 7.8, containing 0.2 M sodium chloride and 5 mM calcium chloride). The GCF samples (or reagent blanks or trypsin controls) were incubated at 27° C. for 18 hours with gentle shaking. The reaction was stopped and undigested collagen precipitated by adding 10 μl 0.1 M phenanthroline in dioxane/water (1:1, v/v), 10 μl of nonradioactive methylated carrier collagen (2 mg/ml) in 50 mM Tris-HCl buffer containing 1M NaCl (pH 7.0), and 100 μl dioxane. After mixing, the radiolabeled collagen degradation products were collected by filtration and counted in a liquid scintillation spectrometer (Golub, et. al., 1976, J. Dent. Res., 55, 1049). Using this technique, the reaction blank (no enzyme or GCF added) released about 10% of the total substrate counts; 2-20 ng bacterial collagenase produced a linear increase in the release of radioactive counts from the ^3 H-collagen substrate (the 20 ng level of enzyme degraded 60% of the collagen substrate); and 50 ng trypsin released less than 1% of the counts above blank values. GCF collagenase activity was expressed as units of equivalent activity of vertebrate collagenase (obtained from New England Nuclear, Cat. No. NEK-016); 1 unit was operationally defined as the amount of enzyme that degrades 1 μg of collagen per hour at 27° C.
[…] PD=4.2 mm±0.3), and GCF collagenolytic activity was measured as described above. […] Two additional GCF samples were collected from the same 4 mm pocket, in this patient, before and after minocycline therapy. These samples were incubated with 10 μl ^3 H-collagen for 18 hours (22° C.), then thermally denatured and the collagen subunits and collagenase digestion products were separated by SDS-polyacrylamide gel electrophoresis (Nicoll, et. al., Experientia., 37, 315-317 (1981)). The gels were processed for fluorography (see Sodek, et. al., J. Periodontal. Res., 16, 425-433 (1981)) and exposed to Kodak X A R-5 film for 3 days.

[2] = system: fetal rat bones (radii and ulnae) in organ culture; test: PTH-induced bone resorption in organ culture (45calcium release); assay type: cell-based
Procedure: The technique used to assess bone resorption is based on monitoring the release of radioactive calcium, previously incorporated by embryonic bones in vivo, during organ culture. Pregnant Sprague-Dawley rats were injected subcutaneously with 200 μCi of ^45 calcium chloride on the 18th day of gestation. The following day, the animals were killed, the fetuses removed, and the radii and ulnae dissected under aseptic conditions. […] The bones were then randomly distributed and each bone, either a radius or ulna, was incubated in 0.5 ml of culture media alone or in a media containing parathyroid hormone (PTH: human synthetic 1-34 peptide, Beckman Instruments, Inc., Palo Alto, California) added in a final concentration of 1.0 μg/ml; the experimental bones were incubated in the PTH containing medium to which was added different concentrations (0.2-300 μg/ml) of the antibiotics to be tested. The bones were cultured for 5 days, with the media being changed after day 2, and the incubation terminated. The bones were decalcified in 0.2 ml of 5% trichloroacetic acid and the ^45 calcium content of the residual bones and of the culture media was measured as described previously. (Werner and Raisz, Endocrinology, 90, 752 (1972 ) and Gomes, et. al., Calc. Tiss. Res., 19, 285 (1976)). The ^45 calcium released into the media was calculated as a percentage of the total radioactive calcium measured in the bones.

[3] = during a therapeutic regimen; cited from earlier work
[4] = GCF from the same 4 mm pocket before and after therapy
[5] = Table 3, PTH + 2 μg/ml minocycline + 100 μg/ml Pen.-Strep.
[6] = Table 3, PTH + 2 μg/ml minocycline + 300 μg/ml Pen.-Strep.
[7] = Table 3, PTH + 20 μg/ml minocycline + 100 μg/ml Pen.-Strep.

CN(C)c1ccc(O)c2c1C[C@H]1C[C@H]3[C@H](N(C)C)C(O)=C(C(N)=O)C(=O)[C@@]3(O)C(O)=C1C2=O [minocycline, Minocycline]
increase of skin collagen levels (germfree diabetic rats; germ-free diabetic rats, 20 mg/day for the last 4 weeks, versus untreated diabetics): 45% | bone levels (germfree diabetic rats; germfree control, diabetic and minocycline-treated diabetic rats): no differences | reduction of gingival collagenolytic activity (tissue culture) (germfree diabetic rats; germfree diabetic rats, 20 mg/day by gavage for the last 4 weeks): 70% | densitometric analysis of fluorographs: degradation products ([1]; GCF before and after therapy): reduced the percentage of the total radiolabeled collagenous material present as degradation products | breakdown of intact ^3 H-collagen by GCF (SDS-PAGE fluorography) [1, 4]: reduced the breakdown of the intact collagen | production of α^A and α^B collagen digestion fragments by GCF (fluorography) [1, 4]: inhibited the production | pocket depth ([1]; non-diabetic patient two): essentially unchanged | reduction of G. I. ([1]; non-diabetic patient two): 26% | reduction of GCF flow ([1]; non-diabetic patient two): 71% | reduction of trypsin-activated collagenase in GCF ([1]; non-diabetic patient two): 59% | reduction of active collagenase in GCF ([1]; non-diabetic patient two, minocycline therapy as in (a)): 86% | ^45 Calcium in Fetal Bone Released into Media (%) after 2 days incubation ([2]; Table 3, PTH + 0.2 μg/ml): 42.6 ± 0.6% | ^45 Calcium in fetal bone Released into media (%) after 5 days incubation ([2]; Table 3, PTH + 0.2 μg/ml): 75.6 ± 1.0% | ^45 Calcium in Fetal Bone Released into Media (%) after 2 days incubation ([2]; Table 3, PTH + 2 μg/ml): 44.2 ± 2.1% | ^45 Calcium in fetal bone Released into media (%) after 5 days incubation ([2]; Table 3, PTH + 2 μg/ml): 74.7 ± 3.1% | ^45 Calcium in Fetal Bone Released into Media (%) after 2 days incubation [2, 5]: 42.9 ± 1.9% | ^45 Calcium in fetal bone Released into media (%) after 5 days incubation [2, 5]: 70.2 ± 3.7% | ^45 Calcium in Fetal Bone Released into Media (%) after 2 days incubation [2, 6]: 45.7 ± 2.5% | ^45 Calcium in fetal bone Released into media (%) after 5 days incubation [2, 6]: 71.8 ± 3.5% | ^45 Calcium in Fetal Bone Released into Media (%) after 2 days incubation ([2]; Table 3, PTH + 20 μg/ml): 22.5 ± 1.6% | ^45 Calcium in fetal bone Released into media (%) after 5 days incubation ([2]; Table 3, PTH + 20 μg/ml): 29.2 ± 1.8% | ^45 Calcium in Fetal Bone Released into Media (%) after 2 days incubation [2, 7]: 21.5 ± 1.5% | ^45 Calcium in fetal bone Released into media (%) after 5 days incubation [2, 7]: 31.9 ± 2.1% | ^45 Calcium in fetal bone Released into media (%) after 5 days incubation ([2]; Table 3, PTH + 20 μg/ml minocycline + 300 μg/ml Pen.-Strep.): 33.5 ± 1.3% | ^45 Calcium in Fetal Bone Released into Media (%) after 2 days incubation ([2]; Table 3, PTH + 60 μg/ml): 19.4 ± 0.9% | ^45 Calcium in fetal bone Released into media (%) after 5 days incubation ([2]; Table 3, PTH + 60 μg/ml): 24.5 ± 1.1% | ^45 Calcium in Fetal Bone Released into Media (%) after 2 days incubation ([2]; Table 3, PTH + 200 μg/ml): 17.6 ± 0.4% | ^45 Calcium in fetal bone Released into media (%) after 5 days incubation ([2]; Table 3, PTH + 200 μg/ml): 22.3 ± 0.5% | ^45 Calcium in Fetal Bone Released into Media (%) after 2 days incubation ([2]; Table 4, first column, PTH + 0.2 μg/ml): 54.5 ± 4.1% | ^45 Calcium in Fetal Bone Released into Media (%) after 2 days incubation ([2]; Table 4, first column, PTH + 2.0 μg/ml): 56.5 ± 2.6% | ^45 Calcium in Fetal Bone Released into Media (%) after 2 days incubation ([2]; Table 4, first column, PTH + 20 μg/ml): 40.7 ± 0.8% | ^45 Calcium in Fetal Bone Released into Media (%) after 2 days incubation ([2]; Table 4, first column, PTH + 200 μg/ml): 16.4 ± 1.1% | ^45 Calcium in Fetal Bone Released into Media (%) after 2 days incubation ([2]; Table 4, second column, PTH + 0.2 μg/ml): 95.1 ± 1.8% | ^45 Calcium in Fetal Bone Released into Media (%) after 2 days incubation ([2]; Table 4, second column, PTH + 2.0 μg/ml): 93.3 ± 2.6% | ^45 Calcium in Fetal Bone Released into Media (%) after 2 days incubation ([2]; Table 4, second column, PTH + 20 μg/ml): 50.1 ± 0.8% | ^45 Calcium in Fetal Bone Released into Media (%) after 2 days incubation ([2]; Table 4, second column, PTH + 200 μg/ml): 20.4 ± 1.5% | effect on PTH-enhanced bone resorption, in words ([2]; concentrations 0.2-300 μg/ml): inhibit ^45 calcium release in a dose responsive manner | concentration in human serum [3]: approximately 2 ug/ml | concentration in the gingival crevicular fluid relative to serum [3]: 4-5 times greater
